Laboratory results from article PMC12520456, “Regulating Enzyme Activity via Microaggregates Mediated by Phase Separation” (Advanced Science, 2025).
Non-standard residues stand in square brackets, D forms with d. Residues, ends and D or L forms follow the SMILES beside them.

Legend:
NIH-3T3 or HUVEC = test: Annexin V/PI apoptosis assay by flow cytometry; assay type: cell-based; details: 48 h; DPMD, also pre-incubated with trypsin or chymotrypsin; Figure S14B
Experimental: and the product's absorbance at […] was dynamically and real-time monitored using a microplate […]
During the chymotrypsin activity assay, DPMD was incorporated into chymotrypsin. The final concentration of chymotrypsin was set at 10 μg/mL, and the final concentration of DPMD was 5 mg/mL. In the corresponding control group, an equal volume of the buffer solution prepared by the kit was added. Subsequently, the enzyme-peptide mixture was added to the reaction system containing the substrate N-Benzoyl-L-Tyrosine Ethyl Ester (BTEE) at a ratio of 1:100 (where the proportion of the enzyme-peptide mixture solution was 1) for the detection of enzyme activity. The reaction was carried out at 25 ℃, and the product's absorbance at 256 nm was dynamically and real-time monitored using a microplate reader. The experimental result was represented by the enzyme reaction's degree of completion. All the tests were repeated three independent times.
NIH-3T3 cells were obtained from the National Collection of Authenticated Cell Cultures. […] Cell viability was evaluated by the CCK-8 assay (Dojindo) at 1-, 3-, 5-, and 7-days post-treatment. […] The absorbance at 450 nm was recorded using a microplate reader […]
was performed using an Annexin V-Alexa Fluor 647/PI kit (Solarbio) according to the manufacturer’ s protocol. […] Samples were analyzed within 1h on a Sony MA900 flow cytometer.
3.12 Animal fluorescence imaging […]

[1] = target: T1, chymotrypsin pre-incubated with aprotinin (Bos taurus, UniProt P00766); test: Fluorescence anisotropy binding, aprotinin-blocked chymotrypsin; details: inhibitor and protein both at 20 μM; Figure S3C
T1 construct: purchased Aladdin (chymotrypsin); Yeasen Biotechnology (aprotinin)
Text: Figure S3. The fluorescent anisotropy evaluation of binding affinity between DPMD peptide with Proteinase K (A), and inhibitor-saturated and blocked trypsin (B) and chymotrypsin (C). Trypsin/Chymotrypsin was saturated and blocked by aprotinin (Yeasen Biotechnology, trypsin/chymotrypsin inhibitor). (D-H) The fluorescent anisotropy evaluation of binding affinity between DPMD peptide with elastase (D), lipase (E), amylase(F), carboxypeptidase (G), albumin (H) and immunoglobulins (I).
Figure S4. The DLS analysis of trypsin, chymotrypsin and DPMD with/without trypsin or chymotrypsin. […]
data acquisition. A series of enzyme solutions with varying concentrations (maximum concentrations of trypsin and chymotrypsin were 20 μM each) were prepared in Tris-HCl buffer (10 mM Tris, 150 mM NaCl, 1 mM EDTA, pH 7.0). These enzyme solutions were added to the 96-well plate and incubated with 100 nM DPMD at room temperature for 30 minutes, with triplicates.
Fluorescence polarization was measured with an excitation wavelength of 470 nm and an emission […]
Plot the fluorescence intensity versus concentration data as scatter plots using Origin software.
For data analysis, fit the concentration-fluorescence polarization data with the logistic function in Origin 2021 software to obtain the fitting curve and determine the half-maximal effective concentration (EC50). […]

CC[C@@H](C)[C@@H](NC(=O)[C@@H](CCC(N)=O)NC(=O)[C@H](NC(=O)[C@@H](Cc1ccc(O)cc1)NC(=O)CNC(=O)[C@@H](CC(C)C)NC(=O)[C@H](NC(=O)[C@@H](CO)NC(=O)CNC(=O)[C@@H](C)NC(=O)[C@@H](CC(=O)O)NC(=O)[C@@H](C)NC(=O)[C@@H](CCCNC(=N)N)NC(=O)[C@@H](C)NC(=O)[C@@H](CC(=O)O)NC(=O)[C@@H](C)NC(=O)[C@@H](CCCNC(=N)N)NC(=O)[C@@H](C)NC(=O)[C@@H](CC(=O)O)NC(=O)[C@@H](C)NC(=O)[C@@H](CCCNC(=N)N)NC(=O)[C@@H](C)NC(=O)[C@@H](CC(=O)O)NC(=O)[C@@H](C)NC(=O)[C@H](N)CCCNC(=N)N)C(C)C)[C@H](C)CC)C(=O)N[C@H](CCCNC(=N)N)C(=O)O [DPMD, Ac‐(D‐RADA)4‐CONH2] (H-[dR][dA][dD][dA][dR][dA][dD][dA][dR][dA][dD][dA][dR][dA][dD][dA]G[dS][dV][dL]G[dY][dI][dQ][dI][dR]-OH; N-terminus and C-terminus assumed)
apoptosis or necrosis (Annexin V/PI) (NIH-3T3 or HUVEC): no increase in apoptosis or necrosis
anisotropy change with aprotinin-blocked chymotrypsin [1]: only a minimal anisotropy change
